The text below walks through data of patent US10272092B2, “Composition for preventing or treating mucositis comprising NecroX as effective ingredient” (THE CATHOLIC UNIVERSITY OF KOREA INDUSTRY-ACADEMIC …, priority 2014, dated 2019).

The test system of experiment [1] is liver injury caused by carbon tetrachloride. Conditions: mouse model; reported, Park et al. 2013; cited from earlier work.
The test system of experiment [2] is liver injury due to ischemic reperfusion. Conditions: reported, Park et al. 2013; cited from earlier work.
Experiment [3] concerns normal cells. The experiment in a line: MTT assay of irradiated normal cells. Type of experiment: cell-based. Conditions: 800 cGy radiation; NecroX-7 according to doses; 3 days incubation; FIG. 5. As to the method:
(§1) Mucositis is a general side effect caused by radiation or chemotherapy for tumor treatment. Thus, to confirm the efficacy of a mucositis therapeutic agent, an effect thereof on tumor proliferation should be evaluated. Normal cells and tumor cells were irradiated with 800 cGy radiation, treated with NecroX-7 according to doses, and inoculated on a 96-well plate, incubated at 37[…] and 5% CO2 for 3 days, and then cell proliferation was confirmed by MTT assay. After incubation for 3 days, an MTT solution was added thereto and a reaction was allowed to occur therein for 3 hours, and the absorbance thereof was measured at […].

For experiment [4], the system named is intestinal tissue of radiation-induced mucositis mice. The experiment in a line: Cell proliferation (bromodeoxyuridine) by IHC staining of intestinal tissue. In kind it is in vivo. Conditions: 30 mg/kg NecroX-7, unlike a control, FIG. 4. As to the method:
Cell proliferation (bromodeoxyuridine) was confirmed by IHC staining. Before obtaining mouse tissues, mice were each injected with […] of a BrDU labeling reagent (5-bromo-2′-deoxyuridine and 5-fluoro-2′-deoxyuridine) and intestinal tissue was extracted within 2 hours to prepare paraffin blocks. 4 μm continuous sections were obtained from paraffin-embedded tissue, treated with xylene three times to remove paraffin, and then rinsed stepwise in 95%, 90% and 70% ethanol. After removing endogenous peroxidase from 0.3% hydrogen peroxide, the sections were treated with goat serum for 30 minutes. A primary antibody was diluted in PBS containing 3% BSA according to the manufacturer's instructions and then maintained for 1 hour to induce a reaction therebetween. […] The cells were maintained in 3 μg/ml HRP streptoavidin for 30 minutes, developed color with DAB and hydrogen peroxide, and then were subjected to contrast staining with Mayer's hematoxylin or 1% methyl green.

In experiment [5] the test system is mitochondrial ROS in intestinal epithelial cells (IEC-6). The experiment in a line: Mitochondrial ROS by CM-H2ROS staining after radiation. Conditions: IEC-6 cells after radiation; FIG. 6. Type of experiment: cell-based.
The subject of experiment [6] is anticancer drug-induced mucositis mouse model. Put plainly: Anticancer drug (5-FU)-induced mucositis mouse model: viability, body weight. Type of experiment: in vivo, C57BL/6(H-2k) mice. The following applies: 50 mg/kg 5-FU i.p. five times; NecroX-7 intravenously five times at 0.3, 3 or 30 mg/kg; compared to group not treated; FIG. 7. The method, then: 7 week- to 9 week-old C57BL/6(H-2k) mice were used as an animal model, and injected intraperitoneally with 50 mg/kg of 5-fluorouracil (5-FU) every day for 5 days to induce oral and intestinal mucosal damage, thereby completing the establishment of a mucositis model. Effects of NecroX-7 administered on such a mucositis model were analyzed by comparison in terms of viability, body weight, and intestinal functions.
To induce oral and intestinal mucositis, the C57BL/6(H-2k) mice were intraperitoneally injected with 50 mg/kg of 5-FU five times. NecroX-7 was administered intravenously five times at a dose of 0.3 mg/kg or 3 mg/kg or 30 mg/kg and the results were compared.

The test system of experiment [7] is intestinal tissue of radiation-induced mucositis mice. Put plainly: H&E staining of intestinal tissue, radiation-induced mucositis. Type of experiment: in vivo. Conditions: 30 mg/kg NecroX-7, FIG. 3.
Experiment [8] has as its system intestinal epithelial cells (IEC-6). The experiment in a line: MTS assay of IEC-6 cell proliferation in normal environments. Type of experiment: cell-based. The following applies: no radiation, 5, 10, 20, 40 μM for 30 minutes, measured after 2 days. As to the method: To examine an effect of NecroX-7 on IEC-6 cell proliferation ability in normal environments, IEC-6 cells were treated with NecroX-7 at each concentration (5 μM, 10 μM, 20 μM, and 40 μM) for 30 minutes, the media were replaced and, after 2 days, the viability of the IEC-6 cells was measured by MTS (3-(4,5-dimethylthiazol-2-yl)-5-(3-carboxymethoxyphenyl)-2-(4-sulfophenyl)-2H-tetrazolium) assay.

The test system of experiment [9] is radiation-induced mucositis mouse model. Put plainly: Radiation-induced mucositis mouse model: viability, body weight, intestinal functions. Conditions: 1100 cGy radiation, compared to group not treated. In kind it is in vivo, C57BL/6(H-2k) mice. The method, then: NecroX-7 ((tetrahydropyran-4-yl)-[2-phenyl-5-(1,1-dioxo-thiomorpholine-4-yl)methyl-1H-indole-7-yl]amine) was obtained from LG Life Sciences, Ltd. 7 week- to 9 week-old C57BL/6(H-2k) mice were used as an animal model, and irradiated with 1,100 cGy whole-body radiation to induce damage to the intestinal mucosa, thereby completing the establishment of a mucositis model. Effects of NecroX-7 administered on such a mucositis model were analyzed by comparison in terms of viability, body weight, and intestinal functions.
(A) C57BL/6(H-2k) mice were irradiated with strong radiation 1100 cGy (radiation source: X-ray Mevatron MXE-2) at a dose rate of 1 Gy/min to induce mucositis. NecroX-7 was administered five times at a dose of 0.3 mg/kg or 3 mg/kg or 30 mg/kg and the results were compared.
Induction of intestinal mucositis by radiation causes side effects such as intestinal hemorrhaging and fecal incontinence. Thus, in the present experiment, a mucositis model was established by irradiating high-dose radiation of 1100 cGy, and NecroX-7 was treated total five times and the NecroX-7 treated group was compared to a group not treated with NecroX-7. A protective effect of NecroX-7 with respect to radiation-induced intestinal mucositis was examined.

Experiment [10] deals with necrocytosis caused by oxidative stress and acetaminophen. Conditions: reported, Park et al. 2013; cited from earlier work.
In experiment [11] the test system is tongue and intestinal tissues of anticancer drug-induced mucositis mice. Put plainly: H&E staining of tongue and intestinal tissues, 5-FU-induced mucositis. In kind it is in vivo.
The test system of experiment [12] is tumor cells. Put plainly: MTT assay of irradiated tumor cells. Type of experiment: cell-based. Conditions: 800 cGy radiation; NecroX-7 according to doses; 3 days incubation; FIG. 5. As to the method:
as §1

The test system of experiment [13] is Human tumor cells. Put plainly: MTS viability of human tumor cells, NecroX-7 with or without 5-FU. Type of experiment: cell-based. The following applies: 5, 10, 20, 40 μM for 30 minutes; media without 5-FU; after 3 days; FIG. 10. The method, then:
Human tumor cells were treated with NecroX-7 at each concentration ((5 μM, 10 μM, 20 μM, and 40 μM) for 30 minutes, the media were replaced by media with or without 5-FU, which is a chemotherapeutic agent, the cells were loaded on a 96-well plate and, after 3 days, the viability of the cells was measured by MTS assay.

The test system of experiment [14] is intestinal epithelial cells (IEC-6). Put plainly: MTS assay of IEC-6 cells after irradiation. Type of experiment: cell-based. The following applies: 20 μM and 40 μM NecroX-7 for 30 minutes; 2 days after radiation irradiation; FIG. 6. The method, then:
To investigate an effect of NecroX-7 on cell proliferation ability after irradiation, the IEC-6 cells were treated with NecroX-7, for 30 minutes, according to concentration, the media were replaced, and then MTS assay was performed thereon 2 days after radiation irradiation.
On the technique in general: Formazan colour is commonly taken as a measure of viable cells.

Where [15] appears, read: NecroX-7 five times at 0.3, 3 or 30 mg/kg, FIG. 1.

Consider `O=S1(=O)CCN(Cc2cc(NC3CCOCC3)c3[nH]c(-c4ccccc4)cc3c2)CC1` [NecroX-7, (tetrahydropyran-4-yl)-[2-phenyl-5-(1,1-dioxo-thiomorpholine-4-yl)methyl-1H-indole-7-yl]amine], for which the “prevention of liver injury caused by carbon tetrachloride” value in experiment [1] was “effect of preventing liver injury caused by carbon tetrachloride in a mouse model”. The “inhibition of liver injury due to ischemic reperfusion” value in experiment [2] is given as “effectively inhibits liver injury due to ischemic reperfusion”. In addition, the “radiation-induced cell death in normal cells (MTT)” value in [3] was “radiation-induced cell death was prevented”. In addition, the “cell proliferation (bromodeoxyuridine) in intestinal tissue” value in [4] is recorded as “vigorous cell proliferation was observed”. Also, the “mitochondrial ROS (CM-H2ROS staining)” value in [5] is reported as “significantly suppressed mitochondrial ROS increased by radiation”. Further, the results for the body weight loss result in experiment [6] and in experiment [9] (setting [15]) were “suppressed body weight loss” and “inhibited body weight loss”, respectively. In addition, the viability result in [6] and in [9] (setting [15]) was “increased viability” in each case. Besides, the “H&E histology of intestinal tissue (villi and mucosal destruction)” value in experiment [7] is “aspects similar to normal intestinal tissue”; in [11] (NecroX-7-treated group, FIG. 9) it was “aspects similar to normal tongue and intestinal tissues”. Besides, in [8], the “effect on IEC-6 cell proliferation (MTS viability)” value is given as “nearly no effect on cell proliferation”. Also, the “intestinal function protection (length of the intestines, stool production)” value in experiment [9] (NecroX-7 total five times, FIG. 2) was “protected, similar to the intestines of a normal group”. In addition, the “protection against necrocytosis caused by oxidative stress and acetaminophen” value in [10] is “protective effect against necrocytosis caused by oxidative stress and acetaminophen”. Moreover, the “H&E histology of tongue and oral mucosa (epidermal atrophy, infiltration of inflammatory and necrotic cells)” value in [11] (30 mg/kg of NecroX-7, FIG. 8) was “aspects similar to normal tissues”. The “proliferation of tumor cells (MTT)” value in experiment [12] was “suppressed or decreased in most cancer cell lines”. The “viability of human tumor cells (MTS), NecroX-7 alone” value in experiment [13] is on record as “anticancer effect in a concentration-dependent manner”. For the same compound, the “number of live IEC-6 cells (MTS)” value in [14] is recorded as “significantly increased”.
